# Laboratory results taken from patent US10172954B2, “Use of a reverse-micellar system for delivering chelators of radionuclides and metals” (priority 2014, dated 2019).
# Key:
# [1] = Pu decorporation in rats contaminated i.v. with plutonium citrate, chronic intrarectal treatment, liver and femur alpha activity; conditions: cumulative CaNa3DTPA doses 44.3 to 307.6 μmol/kg, rectal, treatment from D+4
# [2] = oral delivery; DTPA highly polar at neutral pH; cited from earlier work
SMILES,efficacy of decorporation in liver or bone Pu deposits as a function of cumulative dose [1],absorbed when delivered orally [2] [%]
"O=C([O-])CN(CCN(CC(=O)[O-])CC(=O)[O-])CCN(CC(=O)[O-])CC(=O)[O-].[Ca+2].[Na+].[Na+].[Na+] [CaNa3DTPA, pentetate calcium trisodium]",proportional to the administered dose cumulative,–
"O=C(O)CN(CCN(CC(=O)O)CC(=O)O)CCN(CC(=O)O)CC(=O)O [DTPA, diethylene triaminopentaacetic acid]",–,< 10
